From patent US8557860B2, “Cyclopentane heptan(ENE)OIC acid, 2-heteroarylalkenyl derivatives as therapeutic agents” (Allergan, Inc., priority 2004, dated 2013)

Experiments:
Format in all cases: cell-based
[1] = molecular target: T1, hFP (Homo sapiens, UniProt P43088); assay: FLIPR calcium signal study, hFP; details: HEK-293(EBNA) cells, recombinant human receptor, read-out: FUNCTIONAL DATA (EC50 nm) HFP
T1 construct: expressed in transfected cells; host or cells: HEK-293(EBNA)
Description: (§1) HEK-293(EBNA) cells, stably expressing one type or subtype of recombinant human prostaglandin receptors (prostaglandin receptors expressed: hDP/Gqs5; hEP1; hEP2/Gqs5; hEP3A/Gqi5; hEP4/Gqs5; hFP; hIP; hTP), were cultured in 100 mm culture dishes in high-glucose DMEM medium containing 10% fetal bovine serum, 2 mM 1-glutamine, 250 μg/ml geneticin (G418) and 200 μg/ml hygromycin B as selection markers, and 100 units/ml penicillin G, 100 μg/ml streptomycin and 0.25 μg/ml amphotericin B.
(§2) Cells were seeded at a density of 5×10^4 cells per well in Biocoat® Poly-D-lysine-coated black-wall, clear-bottom 96-well plates (Becton-Dickinson) and allowed to attach overnight in an incubator at 37° C. Cells were then washed two times with HBSS-HEPES buffer (Hanks Balanced Salt Solution without bicarbonate and phenol red, 20 mM HEPES, pH 7.4) using a Denley Cellwash plate washer (Labsystems). […]
(§3) Cells were excited with an Argon laser at 488 nm, and emission was measured through a 510-570 nm bandwidth emission filter (FLIPR™, Molecular Devices, Sunnyvale, Calif.). […] The peak increase in fluorescence intensity was recorded for each well. […] The peak fluorescence change in each drug-containing well was then expressed relative to the controls. […]

[2] = molecular target: T2, hTP (Homo sapiens, UniProt P21731); assay: FLIPR calcium signal study, hTP; details: HEK-293(EBNA) cells, recombinant human receptor, read-out: FUNCTIONAL DATA (EC50 nm) HTP
T2 construct: expressed in transfected cells; host or cells: HEK-293(EBNA)
T2 sequence (P21731 1-343): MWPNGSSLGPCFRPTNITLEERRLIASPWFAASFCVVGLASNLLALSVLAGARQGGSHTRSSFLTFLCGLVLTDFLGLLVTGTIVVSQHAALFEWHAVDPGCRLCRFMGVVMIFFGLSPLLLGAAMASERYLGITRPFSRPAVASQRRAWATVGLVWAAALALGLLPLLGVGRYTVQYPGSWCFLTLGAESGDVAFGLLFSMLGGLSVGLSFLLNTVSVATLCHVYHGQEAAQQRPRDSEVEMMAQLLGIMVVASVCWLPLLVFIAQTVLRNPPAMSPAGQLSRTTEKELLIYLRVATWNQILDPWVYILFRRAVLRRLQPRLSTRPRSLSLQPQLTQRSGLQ
Description: as §1
(§4) Cells were seeded at a density of 5×10^4 cells per well in Biocoat® Poly-D-lysine-coated black-wall, clear-bottom 96-well plates (Becton-Dickinson) and allowed to attach overnight in an incubator at 37° C. Cells were then washed two times with HBSS-HEPES buffer (Hanks Balanced Salt Solution without bicarbonate and phenol red, 20 mM HEPES, pH 7.4) using a Denley Cellwash plate washer (Labsystems). After 45 minutes of dye-loading in the dark, using the calcium-sensitive dye Fluo-4 AM at a final concentration of 2 μM, plates were washed four times with HBSS-HEPES buffer to remove excess dye leaving 100 μl in each well. Plates were re-equilibrated to 37° C. for a few minutes.
(§5) Cells were excited with an Argon laser at 488 nm, and emission was measured through a 510-570 nm bandwidth emission filter (FLIPR™, Molecular Devices, Sunnyvale, Calif.). Drug solution was added in a 50 μl volume to each well to give the desired final concentration. The peak increase in fluorescence intensity was recorded for each well. On each plate, four wells each served as negative (HBSS-HEPES buffer) and positive controls (standard agonists: BW245C (hDP); PGE2 (hEP1; hEP2/Gqs5; hEP3A/Gqi5; hEP4/Gqs5); PGF2α (hFP); carbacyclin (hIP); U-46619 (hTP), depending on receptor). The peak fluorescence change in each drug-containing well was then expressed relative to the controls.
(§6) Compounds were tested in a high-throughput (HTS) or concentration-response (CoRe) format. […]

[3] = molecular target: T3, hEP3A/Gqi5 (Homo sapiens, UniProt P43115); assay: FLIPR calcium signal study, hEP3A/Gqi5; details: HEK-293(EBNA) cells, recombinant human receptor, read-out: FUNCTIONAL DATA (EC50 nm) HEP3A
T3 construct: expressed in transfected cells; host or cells: HEK-293(EBNA)
T3 sequence (P43115 1-390): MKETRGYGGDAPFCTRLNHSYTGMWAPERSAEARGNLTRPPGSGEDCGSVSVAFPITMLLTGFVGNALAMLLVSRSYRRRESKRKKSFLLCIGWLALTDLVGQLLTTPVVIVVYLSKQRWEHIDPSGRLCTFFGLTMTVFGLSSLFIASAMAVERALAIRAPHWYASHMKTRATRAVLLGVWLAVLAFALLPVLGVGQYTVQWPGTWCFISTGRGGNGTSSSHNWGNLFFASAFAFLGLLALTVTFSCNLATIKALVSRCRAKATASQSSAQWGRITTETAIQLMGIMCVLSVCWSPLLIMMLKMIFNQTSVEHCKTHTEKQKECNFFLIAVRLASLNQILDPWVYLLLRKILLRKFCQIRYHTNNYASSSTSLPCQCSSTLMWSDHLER
Description: as §1, §4, §5, §6

[4] = molecular target: T4, hEP4/Gqs5 (Homo sapiens, UniProt P35408); assay: FLIPR calcium signal study, hEP4/Gqs5; details: HEK-293(EBNA) cells, recombinant human receptor, read-out: FUNCTIONAL DATA (EC50 nm) HEP4
T4 construct: expressed in transfected cells; host or cells: HEK-293(EBNA)
Description: as §1, §2, §3

[5] = molecular target: T5, hEP1 (Homo sapiens, UniProt P34995); assay: FLIPR calcium signal study, hEP1; details: HEK-293(EBNA) cells, recombinant human receptor, read-out: FUNCTIONAL DATA (EC50 nm) HEP1
T5 construct: expressed in transfected cells; host or cells: HEK-293(EBNA)
T5 sequence (P34995 1-402): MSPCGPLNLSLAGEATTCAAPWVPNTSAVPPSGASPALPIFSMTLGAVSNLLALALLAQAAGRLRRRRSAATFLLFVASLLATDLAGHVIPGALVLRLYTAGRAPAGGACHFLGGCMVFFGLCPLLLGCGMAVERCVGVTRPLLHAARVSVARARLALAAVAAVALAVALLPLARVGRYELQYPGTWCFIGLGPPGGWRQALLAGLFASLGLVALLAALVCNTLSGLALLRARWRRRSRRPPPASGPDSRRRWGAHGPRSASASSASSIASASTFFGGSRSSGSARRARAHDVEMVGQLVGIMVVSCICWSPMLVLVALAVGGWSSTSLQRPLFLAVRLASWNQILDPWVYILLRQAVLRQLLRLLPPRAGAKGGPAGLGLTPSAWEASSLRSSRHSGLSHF
Description: as §1, §2, §3

T1 sequence (P43088 whole entry): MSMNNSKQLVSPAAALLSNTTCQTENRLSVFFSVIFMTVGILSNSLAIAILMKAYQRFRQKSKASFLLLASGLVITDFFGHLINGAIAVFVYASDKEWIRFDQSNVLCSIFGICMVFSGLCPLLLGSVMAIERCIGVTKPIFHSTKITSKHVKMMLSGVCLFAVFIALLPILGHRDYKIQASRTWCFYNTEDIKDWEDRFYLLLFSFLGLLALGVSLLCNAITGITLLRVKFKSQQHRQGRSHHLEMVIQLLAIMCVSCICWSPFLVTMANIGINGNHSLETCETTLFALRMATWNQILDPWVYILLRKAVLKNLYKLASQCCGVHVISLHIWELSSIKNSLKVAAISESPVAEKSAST
T4 sequence (P35408 whole entry): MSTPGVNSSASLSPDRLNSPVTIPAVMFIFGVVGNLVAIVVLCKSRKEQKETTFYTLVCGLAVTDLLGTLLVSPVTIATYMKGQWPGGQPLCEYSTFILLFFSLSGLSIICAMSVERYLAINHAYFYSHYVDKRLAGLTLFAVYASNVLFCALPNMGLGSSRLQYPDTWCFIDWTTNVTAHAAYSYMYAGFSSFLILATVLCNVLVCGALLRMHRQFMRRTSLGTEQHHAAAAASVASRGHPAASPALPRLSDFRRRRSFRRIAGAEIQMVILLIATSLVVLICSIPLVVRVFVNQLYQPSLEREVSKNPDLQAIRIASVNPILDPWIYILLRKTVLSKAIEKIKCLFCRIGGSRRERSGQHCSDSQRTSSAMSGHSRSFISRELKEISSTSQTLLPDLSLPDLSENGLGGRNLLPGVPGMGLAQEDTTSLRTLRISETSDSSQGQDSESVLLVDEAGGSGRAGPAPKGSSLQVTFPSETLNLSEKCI

SMILES	EC50 [1] [nM]	EC50 [2] [nM]	EC50 [3] [nM]	EC50 [4] [nM]	EC50 [5] [nM]
Cc1sc(CC[C@H](O)/C=C/[C@H]2CCC(O)[C@@H]2C/C=C\CCCC(=O)O)cc1Br (single isomer, unassigned) [drawing 40]	> 100000	> 100000	> 100000	832	–
COC(=O)CCC/C=C\C[C@H]1C(O)CC[C@@H]1/C=C/[C@@H](O)CCc1cc(Br)c(C)s1 (single isomer, unassigned)	2070	1870	> 100000	–	–
Cc1sc(CC[C@H](O)/C=C/[C@H]2CCC(O)[C@@H]2C/C=C\CCCC(=O)O)cc1Br (single isomer, unassigned) [drawing 39]	–	96	793	> 100000	> 100000
